Organism: Rattus norvegicus
Assay: DrugMatrix - Regimen: Daily Repeat
Format: toxicity, organism-based, Sprague-Dawley
Parameters: regimen Daily Repeat, gender Male, age 6-8 weeks
Conditions: in vivo, po, route oral GAVAGE, […]; for ABSOLUTE BASOPHIL / ABSOLUTE EOSINOPHIL / ABSOLUTE LYMPHOCYTE / ABSOLUTE MONOCYTE / ABSOLUTE SEGMENTED NEUTROPHIL / BASOPHIL / EOSINOPHIL / ERYTHROCYTE COUNT / HEMATOCRIT / HEMOGLOBIN / LEUKOCYTE COUNT / LYMPHOCYTE / MEAN CORPUSCULAR HEMOGLOBIN / MEAN CORPUSCULAR HEMOGLOBIN CONCENTRATION / MEAN CORPUSCULAR VOLUME / MONOCYTE / NEUTROPHIL / NUCLEATED RED BLOOD CELLS / PLATELET COUNT: tissue Blood; for ALANINE AMINOTRANSFERASE / ALBUMIN / ALKALINE PHOSPHATASE / ASPARTATE AMINOTRANSFERASE / BLOOD UREA NITROGEN / CARBON DIOXIDE / CHLORIDE / CHOLESTEROL / CREATINE PHOSPHOKINASE / CREATININE / GLUCOSE / LACTATE DEHYDROGENASE / LIPASE / PHOSPHORUS / POTASSIUM / SODIUM / TOTAL BILIRUBIN / TOTAL PROTEIN / URIC ACID: tissue Plasma
[1] = 24 mg/kg, 72 h, dose level Low, time 3 day
[2] = 24 mg/kg, 120 h, dose level Low, time 5 day
[3] = 93 mg/kg, 72 h, dose level High, time 3 day
[4] = 93 mg/kg, 120 h, dose level High, time 5 day

## Cc1cccc(Nc2ccccc2C(=O)O)c1C [MEFENAMIC ACID]
[1]
  ABSOLUTE BASOPHIL: 0 CELLS/uL
  ABSOLUTE EOSINOPHIL: 120.67 CELLS/uL
  ABSOLUTE LYMPHOCYTE: 16868.33 CELLS/uL
  ABSOLUTE MONOCYTE: 133 CELLS/uL
  ABSOLUTE SEGMENTED NEUTROPHIL: 1478 CELLS/uL
  BASOPHIL: 0%
  EOSINOPHIL: 0.67%
  ERYTHROCYTE COUNT: 5.76 x10E6/uL
  HEMATOCRIT: 38.77%
  HEMOGLOBIN: 15.4 G/DL
  LEUKOCYTE COUNT: 18.6 x10E3/uL
  LYMPHOCYTE: 90.67%
  MEAN CORPUSCULAR HEMOGLOBIN: 26.73 pg
  MEAN CORPUSCULAR HEMOGLOBIN CONCENTRATION: 39.73 G/DL
  MEAN CORPUSCULAR VOLUME: 67.37 fL
  MONOCYTE: 0.67%
  NEUTROPHIL: 8%
  NUCLEATED RED BLOOD CELLS: 0 /100WBC
  PLATELET COUNT: 1314.33 x10E3/uL
  ALANINE AMINOTRANSFERASE: 80.67 u/L
  ALBUMIN: 4.33 G/DL
  ALKALINE PHOSPHATASE: 454.67 u/L
  ASPARTATE AMINOTRANSFERASE: 99.67 u/L
  BLOOD UREA NITROGEN: 12 mg/dL
  CARBON DIOXIDE: 32 mmol/L
  CHLORIDE: 102.33 MEQ/L
  CHOLESTEROL: 71 mg/dL
  CREATINE PHOSPHOKINASE: 725 u/L
  CREATININE: 0.28 mg/dL
  GLUCOSE: 165.67 mg/dL
  LACTATE DEHYDROGENASE: 174.67 u/L
  LIPASE: 13 u/L
  PHOSPHORUS: 13.37 mg/dL
  POTASSIUM: 6.54 MEQ/L
  SODIUM: 146.73 MEQ/L
  TOTAL BILIRUBIN: 0.2 mg/dL
  TOTAL PROTEIN: 6 G/DL
  URIC ACID: 1.83 mg/dL
[2]
  ABSOLUTE BASOPHIL: 0 CELLS/uL
  ABSOLUTE EOSINOPHIL: 0 CELLS/uL
  ABSOLUTE LYMPHOCYTE: 17204 CELLS/uL
  ABSOLUTE MONOCYTE: 113.33 CELLS/uL
  ABSOLUTE SEGMENTED NEUTROPHIL: 1482.67 CELLS/uL
  BASOPHIL: 0%
  EOSINOPHIL: 0%
  ERYTHROCYTE COUNT: 5.87 x10E6/uL
  HEMATOCRIT: 36.9%
  HEMOGLOBIN: 14.47 G/DL
  LEUKOCYTE COUNT: 18.8 x10E3/uL
  LYMPHOCYTE: 91.33%
  MEAN CORPUSCULAR HEMOGLOBIN: 24.67 pg
  MEAN CORPUSCULAR HEMOGLOBIN CONCENTRATION: 39.23 G/DL
  MEAN CORPUSCULAR VOLUME: 62.87 fL
  MONOCYTE: 0.67%
  NEUTROPHIL: 8%
  NUCLEATED RED BLOOD CELLS: 0.33 /100WBC
  PLATELET COUNT: 1359 x10E3/uL
  ALANINE AMINOTRANSFERASE: 61.67 u/L
  ALBUMIN: 4.17 G/DL
  ALKALINE PHOSPHATASE: 457.33 u/L
  ASPARTATE AMINOTRANSFERASE: 87.33 u/L
  BLOOD UREA NITROGEN: 13.33 mg/dL
  CARBON DIOXIDE: 31.33 mmol/L
  CHLORIDE: 101.67 MEQ/L
  CHOLESTEROL: 67.67 mg/dL
  CREATINE PHOSPHOKINASE: 379.33 u/L
  CREATININE: 0.19 mg/dL
  GLUCOSE: 144.67 mg/dL
  LACTATE DEHYDROGENASE: 449.33 u/L
  LIPASE: 11.33 u/L
  PHOSPHORUS: 11.87 mg/dL
  POTASSIUM: 6.54 MEQ/L
  SODIUM: 145.2 MEQ/L
  TOTAL BILIRUBIN: 0.2 mg/dL
  TOTAL PROTEIN: 5.97 G/DL
  URIC ACID: 1.43 mg/dL
[3]
  ABSOLUTE BASOPHIL: 0 CELLS/uL
  ABSOLUTE EOSINOPHIL: 46.33 CELLS/uL
  ABSOLUTE LYMPHOCYTE: 12604 CELLS/uL
  ABSOLUTE MONOCYTE: 348.67 CELLS/uL
  ABSOLUTE SEGMENTED NEUTROPHIL: 1701 CELLS/uL
  BASOPHIL: 0%
  EOSINOPHIL: 0.33%
  ERYTHROCYTE COUNT: 5.47 x10E6/uL
  HEMATOCRIT: 35.43%
  HEMOGLOBIN: 13.77 G/DL
  LEUKOCYTE COUNT: 14.7 x10E3/uL
  LYMPHOCYTE: 85.67%
  MEAN CORPUSCULAR HEMOGLOBIN: 25.17 pg
  MEAN CORPUSCULAR HEMOGLOBIN CONCENTRATION: 38.9 G/DL
  MEAN CORPUSCULAR VOLUME: 64.77 fL
  MONOCYTE: 2.33%
  NEUTROPHIL: 11.67%
  NUCLEATED RED BLOOD CELLS: 0.33 /100WBC
  PLATELET COUNT: 1191.33 x10E3/uL
  ALANINE AMINOTRANSFERASE: 64.33 u/L
  ALBUMIN: 3.93 G/DL
  ALKALINE PHOSPHATASE: 288.33 u/L
  ASPARTATE AMINOTRANSFERASE: 83 u/L
  BLOOD UREA NITROGEN: 11 mg/dL
  CARBON DIOXIDE: 34 mmol/L
  CHLORIDE: 101.67 MEQ/L
  CHOLESTEROL: 82 mg/dL
  CREATINE PHOSPHOKINASE: 546.33 u/L
  CREATININE: 0.16 mg/dL
  GLUCOSE: 149 mg/dL
  LACTATE DEHYDROGENASE: 123 u/L
  LIPASE: 11 u/L
  PHOSPHORUS: 12.4 mg/dL
  POTASSIUM: 6.65 MEQ/L
  SODIUM: 145.07 MEQ/L
  TOTAL BILIRUBIN: 0.17 mg/dL
  TOTAL PROTEIN: 5.63 G/DL
  URIC ACID: 1.57 mg/dL
[4]
  ABSOLUTE BASOPHIL: 0 CELLS/uL
  ABSOLUTE EOSINOPHIL: 0 CELLS/uL
  ABSOLUTE LYMPHOCYTE: 16873.67 CELLS/uL
  ABSOLUTE MONOCYTE: 0 CELLS/uL
  ABSOLUTE SEGMENTED NEUTROPHIL: 1459.67 CELLS/uL
  BASOPHIL: 0%
  EOSINOPHIL: 0%
  ERYTHROCYTE COUNT: 5.73 x10E6/uL
  HEMATOCRIT: 35.9%
  HEMOGLOBIN: 14.23 G/DL
  LEUKOCYTE COUNT: 18.33 x10E3/uL
  LYMPHOCYTE: 92%
  MEAN CORPUSCULAR HEMOGLOBIN: 24.87 pg
  MEAN CORPUSCULAR HEMOGLOBIN CONCENTRATION: 39.63 G/DL
  MEAN CORPUSCULAR VOLUME: 62.73 fL
  MONOCYTE: 0%
  NEUTROPHIL: 8%
  NUCLEATED RED BLOOD CELLS: 0.33 /100WBC
  PLATELET COUNT: 1419 x10E3/uL
  ALANINE AMINOTRANSFERASE: 66.67 u/L
  ALBUMIN: 4.3 G/DL
  ALKALINE PHOSPHATASE: 382.67 u/L
  ASPARTATE AMINOTRANSFERASE: 85 u/L
  BLOOD UREA NITROGEN: 11.67 mg/dL
  CARBON DIOXIDE: 31.67 mmol/L
  CHLORIDE: 101.33 MEQ/L
  CHOLESTEROL: 76.67 mg/dL
  CREATINE PHOSPHOKINASE: 196.33 u/L
  CREATININE: 0.14 mg/dL
  GLUCOSE: 143 mg/dL
  LACTATE DEHYDROGENASE: 166.33 u/L
  LIPASE: 11.33 u/L
  PHOSPHORUS: 12.5 mg/dL
  POTASSIUM: 6.98 MEQ/L
  SODIUM: 144.2 MEQ/L
  TOTAL BILIRUBIN: 0.17 mg/dL
  TOTAL PROTEIN: 6.23 G/DL
  URIC ACID: 2.33 mg/dL

Source: ChEMBL document CHEMBL3885881, “DrugMatrix”
